From US9957219B2, “Antidiabetic bicyclic compounds” (Merck Sharp & Dohme Corp., priority 2013, dated 2018)

Legend:
Human GPR40 [1] = target: T1, Human GPR40 (Homo sapiens, UniProt O14842); assay: FLIPR assay, agonist-induced calcium mobilization in GPR40/CHO NFAT BLA cells; assay type: cell-based; parameters: expressed in transfected cells
Protocol: (§1) Human and mouse GPR40 stable cell-lines were generated in CHO cells stably expressing NFAT BLA (Beta-lactamase). A human GPR40 stable cell-line was generated in HEK cells stably expressing the acquorin expressing reporter. The expression plasmids were transfected using lipofectamine (Life Technologies) following manufacturer's instructions. Stable cell-lines were generated following drug selection.
FLIPR (Fluorimetric Imaging Plate Reader, Molecular Devices) assays were performed to measure agonist-induced calcium mobilization of the stable clones. For the FLIPR assay, one day before assay, GPR40/CHO NFAT BLA cells were seeded into black-wall-clear-bottom 384-well plates (Costar) at 1.4×10e4 cells/20 μL medium/well. The cells were incubated with 20 μl/well of the assay buffer (HBSS, 0.1% BSA, 20 mM HEPES, 2.5 mM probenecid, pH 7.4) containing 8 μM fluo-4, AM, 0.08% pluronic acid at room temperature for 100 minutes. Fluorescence output was measured using FLIPR. Compounds were dissolved in DMSO and diluted to desired concentrations with assay buffer. 13.3 μL/well of compound solution was added.

Human GPR40 [2] = target: T1, Human GPR40; assay: Inositol Phosphate Turnover (IP1) assay in HEK cells stably expressing human GPR40; assay type: cell-based; parameters: expressed in transfected cells; host or cells: HEK cells stably expressing the aequorin reporter
Protocol: as §1
The assay was performed in 96-well format. HEK cells stably expressing human GPR40 were plated to be 60-80% confluent within 72 h. After 72 h, the plates were aspirated and the cells washed with inositol-free DMEM (ICN). The wash media was replaced with 150 μL of 3H-inositol labeling media (inositol-free media containing 0.4% human albumin or 0.4% mouse albumin, 1× pen/strep antibiotics, glutamine, 25 mM HEPES to which was added 3H-myo-inositol NEN #NET114A 1 mCi/mL, 25 Ci/mmol diluted 1:150 in loading media with a final specific radioactivity of 1 μCi/150 μL). Alternatively, the human and mouse albumin were added after the overnight labeling step before the addition of LiCl.
The assay was typically run the next day after 18 h labeling. On the day of the assay, 5 μL of 300 mM LiCl were added to all wells and incubated at 37 degrees for 20 min. 0.75 μL of 200× compounds were added and incubated with the cells for 60 min at 37 degrees. The media was then aspirated off and the assay terminated with the addition of 60 μL 10 mM formic acid. The cells were lysed for 60 min at room temperature. 15-30 μL of lysate was mixed with 70 μL/1 mg YSi SPA beads (Amersham) in clear bottom Isoplates. The plates were shaken for 2 h at room temperature. Beads were allowed to settle and the plates are counted in the Wallac Microbeta.

T1 sequence (O14842 whole entry): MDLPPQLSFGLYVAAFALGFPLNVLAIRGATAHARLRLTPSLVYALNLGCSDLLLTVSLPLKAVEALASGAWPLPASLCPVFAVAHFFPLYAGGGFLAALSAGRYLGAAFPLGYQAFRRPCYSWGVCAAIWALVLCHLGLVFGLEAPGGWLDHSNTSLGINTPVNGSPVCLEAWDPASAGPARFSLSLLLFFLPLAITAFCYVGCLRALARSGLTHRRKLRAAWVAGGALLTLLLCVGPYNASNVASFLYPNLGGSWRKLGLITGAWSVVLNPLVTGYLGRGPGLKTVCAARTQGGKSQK

EC50 (Human GPR40 [1]) [nM] | EC50 (Human GPR40 [2]) [nM] | Structure (SMILES)
4 | 107 | COc1ccc(F)c(-c2ccc3c(c2F)CC[C@H]3Oc2cccc([C@@H](CC(=O)O)C3CC3)c2)c1 [Example 34]
2 | 91 | COc1ccc(F)c(-c2cnc3c(c2)CC[C@H]3Oc2cccc([C@H](C3CC3)[C@H](C)C(=O)O)c2)c1 [Example 40]
< 0.2 | 15 | COc1ccc(F)c(-c2cc3c(cn2)[C@H](Oc2cccc([C@H](C4CC4)[C@H](C)C(=O)O)c2)CC3)c1 [Example 41]
36 | 2160 | COc1ccc(F)c(-c2cc(F)c3c(c2)CC[C@H]3Oc2cccc([C@@H](CC(=O)O)C3CC3)c2)c1 [Example 31]
2 | 64 | COc1ccc(F)c(-c2ccc3c(c2)CC[C@H]3Oc2cccc([C@@H](CC(=O)O)C3CC3)c2)c1 [Example 1]
0.4 | 4.5 | COc1ccc(F)c(-c2ccc3c(c2F)CC[C@H]3Oc2cccc([C@H](C3CC3)[C@H](C)C(=O)O)c2)c1 [Example 32]
7 | 357 | COc1ccc(F)c(-c2ccc3c(c2Cl)CC[C@H]3Oc2cccc([C@@H](CC(=O)O)C3CC3)c2)c1 [Example 36]
1 | 145 | COc1ccc(F)c(-c2ccc3c(c2-c2cccc4ccn(C)c24)CC[C@H]3Oc2cccc([C@H](C3CC3)[C@H](C)C(=O)O)c2)c1 [Example 37]
5 | 151 | COc1ccc(F)c(-c2cc3c(cc2F)[C@H](Oc2cccc([C@@H](CC(=O)O)C4CC4)c2)CC3)c1 [Example 39]
0.4 | 2.9 | COc1ccc(F)c(-c2ccc3c(c2)CC[C@H]3Oc2cccc([C@H](C3CC3)[C@H](C)C(=O)O)c2)c1 [Example 2]
0.2 | 2.8 | COc1ccc(F)c(-c2ccc3c(c2)CC[C@H]3Oc2cccc([C@H](C3CC3)[C@H](C)C(=O)O)c2F)c1 [Example 4]
17 | 895 | COc1ccc(F)c(-c2ccc3c(n2)CC[C@H]3Oc2cccc([C@@H](CC(=O)O)C3CC3)c2)c1 [Example 38]
22 | 412 | COc1ccc(F)c(-c2ccc3c(c2C#N)CC[C@H]3Oc2cccc([C@@H](CC(=O)O)C3CC3)c2)c1 [Example 30]
12 | 155 | COc1ccc(F)c(-c2cc3c(cc2F)[C@H](Oc2cccc([C@@H](CC(=O)O)C4CC4)c2)CC3)c1 [Example 33]
0.2 | 2.9 | C[C@H](C(=O)O)[C@H](c1cccc(O[C@@H]2CCc3cc(-c4cc(O)ccc4F)ccc32)c1)C1CC1 [Example 35]
8 | 154 | COc1ccc(F)c(-c2ccc3c(c2)CC[C@H]3Oc2cccc([C@H](C3CC3)[C@@H](C)C(=O)O)c2F)c1 [Example 5]
